This data set can be described thus: Maximum solubility of CoQ10 in coconut oil. The settings on record: in neobee (coconut oil). The data set is classed as physicochemical.

`COC1=C(OC)C(=O)C(C/C=C(\C)CC/C=C(\C)CC/C=C(\C)CC/C=C(\C)CC/C=C(\C)CC/C=C(\C)CC/C=C(\C)CC/C=C(\C)CC/C=C(\C)CCC=C(C)C)=C(C)C1=O` [Emulsion Q10, 2-[(2E,6E,10E,14E,18E,22E,26E,30E,34E)-3,7,11,15,19,23,27,31,35,39-Decamethyltetraconta-2,6,10,14,18,22,26,30,34,38-decaenyl]-5,6-dimethoxy-3-methylcyclohexa-2,5-diene-1,4-dione] came in with a maximum solubility of 6%.

The values are drawn from US11944704B2, “Coenzyme Q10 aerosol” (UNM Rainforest Innovations, priority 2015, dated 2024).
